Results reported in US10112928B2, “Inhibitors of SYK” (Hoffmann-La Roche Inc., priority 2012, dated 2018).
Where two headings read alike, the source gives them in different places.

How the values were obtained:
[1] = biological target: recombinant human SYK360-635 (Spleen Tyrosine Kinase) (Homo sapiens (Human), UniProt P43405); experiment: SYK kinase assay (33P ATP incorporation into biotinylated peptide); format: biochemical; details: purified truncated SYK aa 360-635, 20 μM ATP; read-out: Syk_IC50
Procedure: Determination of IC50 of Spleen Tyrosine Kinase (SYK) Inhibition:
SYK kinase assay is a standard kinase assay adapted to a 96 well plate format. This assay is performed in 96-well format for IC50 determination with […] which represented 10 half log dilutions and a 40 μL reaction volume. The assay measures the incorporation of radiolabeled ^33P γATP into an N-terminally biotinylated peptide substrate, derived from naturally occurring phosphoacceptor consensus sequence (Biotin-11aa DY*E). Phosphorylated products were detected upon termination of reactions with EDTA and the addition of Streptavidin coated beads.
final concentration: 50 mM HEPES pH7.5
BSA: Bovine Serum Albumin Fraction V, fatty acid free (Roche Diagnostics GmbH, Cat. No. 9100221) diluted to a final concentration of 0.1%
Assay Dilution Buffer (ADB): 50 mM HEPES, 0.1 mM EGTA, 0.1 mM Na Vanadate, 0.1 mM β-glycerophosphate, 10 mM MgCl2, 1 mM DTT, 0.1% BSA, pH 7.5
Bead wash buffer: 10 g/L PBS (Phosphate buffered saline) with 2M NaCl+1% phosphoric acid.
DMSO and the mixture was incubated for 10 min at RT.
The kinase reaction was initiated by the addition of 10 μL 4× substrate cocktail containing the DYE peptide substrate [0 or 5 μM], ATP [20 μM] and ^33PγATP [2 μCi/rxn]. After incubation at 30° C. for 15 min, the reaction was terminated by the transfer of […] pf the reaction sample to a 96 well 0.65 μm Millipore MADVNOB membrane/plate containing 200 μL 5 mM EDTA and 20% Streptavidine coated beads in PBS.
The unbound radionucleotides were washed under vacuum with 3×250 μL 2M NaCl; 2×250 μL 2M NaCl+1% phosphoric acid; 1×250 μL H2O. After the last wash membrane/plates were transferred to an adaptor plate, heat dried for 15 min at 60° C., and 50 μL scintillation cocktail was added to each well and 4 h later the amount of radioactivity was counted in a top counter.

[2] = system: CD69 up-regulation on B-cell lymphocytes (CD20+) stimulated with anti-human IgM; experiment: B Cell CD69 Up-Regulation Assay in Human Whole Blood; format: cell-based; details: read-out: Human whole blood IC50
Procedure: B Cell CD69 Up-Regulation Assay in Human Whole Blood
Human Blood was collected from healthy volunteers into Vacutainers (BD Biosciences, San Jose, Calif.) containing sodium heparin. Test compound was suspended in DMSO and nine half-log serial dilutions were made. The concentration of […] in the assay was 0.5%. 100 μL whole blood was pre-incubated with compound for 30 min and then stimulated with goat F(ab′)2 anti-human IgM (50 μg/mL, Southern Biotech) for 20 h. At the end of the 20 hour incubation, samples were incubated with fluorochrome-conjugated antibodies, PE mouse anti-human CD20 and APC Mouse anti-human CD69 (BD Biosciences), for 30 minutes. Samples were then lysed with Lyse solution (BD) and washed with PBS containing 2% fetal bovine serum (FBS). Fluorescent signals were acquired on flow cytometer LSR II (BD) and data were analyzed by Flow Jo. The percentage of activated (CD69hi) B-cell lymphocytes (CD20+) were determined using un-stimulated (negative control) and stimulated (positive control) wells as reference guidelines. The percentage inhibition was calculated and an IC50 curve was constructed using GraphPad Prism software with sigmoidal curve fitting.

[3] = human whole blood, anti-IgM stimulation 20 h, CD69hi CD20+ B cells

Compound	IC50 [1] [nM]	IC50 ([2]; Homo sapiens, 20 h) [nM]	IC50 [2, 3] [nM]
Cc1cccc(Nc2cc(Oc3ccccc3)nnc2C(N)=O)n1 [Compound I-1, 4-(6-methylpyridin-2-ylamino)-6-phenoxypyridazine-3-carboxamide]	1320	–	–
Cc1cccc(Nc2cc(Oc3cccc(C#N)c3)nnc2C(N)=O)n1 [Compound I-2, 6-(3-cyanophenoxy)-4-(6-methylpyridin-2-ylamino)pyridazine-3-carboxamide]	965	–	–
Cc1cccc(Nc2cc(Oc3cccc(C(C)(C)N)c3)nnc2C(N)=O)n1 [Compound I-3, 6-(3-(2-aminopropan-2-yl)phenoxy)-4-(6-methylpyridin-2-ylamino)pyridazine-3-carboxamide]	2240	–	–
Cc1cccc(Nc2cc(Oc3cccnc3)nnc2C(N)=O)n1 [Compound I-5, 4-(6-methylpyridin-2-ylamino)-6-(pyridin-3-yloxy)pyridazine-3-carboxamide]	1500	–	–
Cc1cccc(Nc2cc(Oc3ccccc3C#N)nnc2C(N)=O)n1 [Compound I-6, 6-(2-cyanophenoxy)-4-(6-methylpyridin-2-ylamino)pyridazine-3-carboxamide]	385	–	–
CCc1ccccc1Oc1cc(Nc2cccc(C)n2)c(C(N)=O)nn1 [Compound I-7, 6-(2-ethylphenoxy)-4-(6-methylpyridin-2-ylamino)pyridazine-3-carboxamide]	473	–	–
Cc1cccc(Nc2cc(Oc3ccccc3C)nnc2C(N)=O)n1 [Compound I-8, 4-(6-methylpyridin-2-ylamino)-6-(o-tolyloxy)pyridazine-3-carboxamide]	373	> 5000	–
Cc1cccc(Nc2cc(Oc3ccc(Cl)cc3C#N)nnc2C(N)=O)n1 [Compound I-9, 6-(4-chloro-2-cyanophenoxy)-4-(6-methylpyridin-2-ylamino)pyridazine-3-carboxamide]	1410	–	–
Cc1cccc(Nc2cc(Oc3ccccc3C3CC3)nnc2C(N)=O)n1 [Compound I-10, 6-(2-cyclopropylphenoxy)-4-(6-methylpyridin-2-ylamino)pyridazine-3-carboxamide]	2180	–	–
NC(=O)c1n[nH]c(=O)cc1Nc1cccc(C2CC2)n1 [Compound I-11, 4-(6-cyclopropyl-pyridin-2-ylamino)-6-oxo-1,6-dihydro-pyridazine-3-carboxylic acid amide]	225	–	> 5000
Cc1ccc(Nc2cc(OCCN)nnc2C(N)=O)nc1C [Compound I-13, 6-(2-aminoethoxy)-4-(5,6-dimethylpyridin-2-ylamino)pyridazine-3-carboxamide]	–	–	> 50000
Cc1cc(C)cc(Nc2cc(Cl)nnc2C(N)=O)c1 [Compound I-14, 6-chloro-4-(3,5-dimethylphenylamino)pyridazine-3-carboxamide]	124	–	> 50000
Cc1ccc(Nc2cc(NC(CN)CC(C)C)nnc2C(N)=O)nc1C(C)C (stereo not shown) [Compound I-15, 6-(1-aminomethyl-3-methyl-butylamino)-4-(6-isopropyl-5-methyl-pyridin-2-ylamino)-pyridazine-3-carboxylic acid amide]	2	–	931
CC(C)(C)c1cccc(Nc2cc(NCCN)nnc2C(N)=O)n1 [Compound I-16, 6-(2-aminoethylamino)-4-(6-tert-butylpyridin-2-ylamino)pyridazine-3-carboxamide]	13	–	603
CC(C)(C)c1cccc(Nc2cc(NCC3(N)CC3)nnc2C(N)=O)n1 [Compound I-19, 6-((1-aminocyclopropyl)methylamino)-4-(6-tert-butylpyridin-2-ylamino)pyridazine-3-carboxamide]	135	–	6020
CC(C)(C#N)c1cccc(Nc2cc(NCCN)nnc2C(N)=O)n1 [Compound I-21, 6-(2-aminoethylamino)-4-(6-(2-cyanopropan-2-yl)pyridin-2-ylamino)pyridazine-3-carboxamide]	–	–	573
Cc1cccc(Nc2nc(CCCN)ncc2C(N)=O)c1 [Compound I-22, 2-(3-amino-propyl)-4-m-tolylamino-pyrimidine-5-carboxylic acid amide]	2540	–	> 5000
CC(C)(O)c1cccc(Nc2cc(NCCN)nnc2C(N)=O)n1 [Compound I-23, 6-(2-aminoethylamino)-4-(6-(2-hydroxypropan-2-yl)pyridin-2-ylamino)pyridazine-3-carboxamide]	–	–	2060
Cc1cc(C)nc(Nc2cc(NCCN)nnc2C(N)=O)n1 [Compound I-24, 6-(2-aminoethylamino)-4-(4,6-dimethylpyrimidin-2-ylamino)pyridazine-3-carboxamide]	3980	–	> 5000
NCCNc1cc(Nc2cccc(C(F)(F)F)n2)c(C(N)=O)nn1 [Compound I-25, 6-(2-aminoethylamino)-4-(6-(trifluoromethyl)pyridin-2-ylamino)pyridazine-3-carboxamide]	–	–	52
Cc1ccc(Nc2cc(NCCN)nnc2C(N)=O)nc1N(C)C [Compound I-27, 6-(2-aminoethylamino)-4-(6-(dimethylamino)-5-methylpyridin-2-ylamino)pyridazine-3-carboxamide]	–	–	287
CC(C)(C)c1nccc(Nc2cc(NCCN)nnc2C(N)=O)n1 [Compound I-28, 6-(2-aminoethylamino)-4-(2-tert-butylpyrimidin-4-ylamino)pyridazine-3-carboxamide]	–	–	358
COC(C)(C)c1cccc(Nc2cc(NCCN)nnc2C(N)=O)n1 [Compound I-29, 6-(2-aminoethylamino)-4-(6-(2-methoxypropan-2-yl)pyridin-2-ylamino)pyridazine-3-carboxamide]	–	–	1800
Cc1cccc(Nc2cc(N[C@@H]3CCCC[C@@H]3N)ccc2C(N)=O)n1 [Compound I-30, 4-((1R,2S)-2-amino-cyclohexylamino)-2-(6-methyl-pyridin-2-ylamino)-benzamide]	41.8	–	548
COc1nc(Nc2cc(NCCN)nnc2C(N)=O)ccc1C(C)C [Compound I-31, 6-(2-aminoethylamino)-4-(5-isopropyl-6-methoxypyridin-2-ylamino)pyridazine-3-carboxamide]	9.25	–	1500
CC(C)Oc1cccc(Nc2cc(NCCN)nnc2C(N)=O)n1 [Compound I-33, 6-(2-aminoethylamino)-4-(6-isopropoxypyridin-2-ylamino)pyridazine-3-carboxamide]	12.4	–	566
